In US20250179024A1, “AMYLOID AND ASSOCIATED PATHOLOGY MODULATORS AND METHODS THEREOF” (Jawaharlal Nehru Centre for Advanced Scientific Research, priority 2022, published 2025):

Tests used:
[1] = molecular target: T1, Aβ in the presence of Zn (II) (Homo sapiens, UniProt P05067); assay: Zn-dependent Aβ aggregation, native PAGE and western blot; format: biochemical; conditions: Aβ 10 μM, Zn (II) 20 μM, NMIs 20 μM, 37° C., 48 h
T1 construct: is a 42 amino acid proteolytic product from the amyloid precursor protein; purchased Invitrogen
Description: The samples were prepared by incubating Aβ42 with specific concentration of NMI compounds of present disclosure and metal ions for 48 h and then subjected to 6% native polyacrylamide gel electrophoresis (Native-PAGE) in tris-glycine buffer. The lower molecular weight aggregates permeabilized through the gel and resolved in the gel. Higher molecular aggregates stuck in the upper part of wells and potentially carried in gel. Then the protein was transferred to PVDF membrane for 4 h at cold condition maintained using ice cold transfer buffer and immersing the transfer apparatus in ice. Then the blots were continued similar to dot blots.
The absorbance and fluorescence spectroscopy studies together with mass spectrometry data confirmed the selective Cu (II) or Zn (II) chelation property of M1 and M3. […] Aβ (10 μM) was incubated in the presence of Cu (II) or Zn (II) (20 μM) with NMIs at 37° C. for 48 h and the samples were subjected to native PAGE and western blot analysis. […] Modulation of Zn-dependent Aβ aggregation by M4 was attributed to its two Zn (II) chelation centres. M3 with dopamine and DPA moieties effectively modulated both Cu (II) and Zn (II)-dependent Aβ aggregation. The effect of NMIs on the morphological outcome of metal-dependent Aβ aggregation was visualized by AFM imaging (FIGS. 1E and 1F). Aβ in the presence of Cu (II) and Zn (II) formed dense and thick fibrils.

Nrf2 = Nrf2 localisation by indirect immunofluorescence; format: cell-based; conditions: Aβ treated SH-SY5Y cells
Description: Cells were cultured in confocal dishes up to 70% confluence and then treated with Aβ alone and with NMIs (M3), and subjected to immunofluorescence. The cells were washed twice with dPBS and then fixed with 4% paraformaldehyde for 15 min. The cells were then washed twice with dPBS for 5 min followed by treatment with permeabilization buffer (dPBS with 0.1% Triton X-100) for 10 min. The permeabilization buffer was aspirated and rinses with dPBS twice for 5 min. The samples were blocked with 10% goat serum in dPBS for 30 min at room temperature. The blocking solution was aspirated and then was treated with primary antibody (Nrf2/Iba1) with desired dilution in 4° C. with gentle shaking overnight. The samples were then washed with dPBS thrice for 5 min each and treated with Alexa Fluor-488 conjugated secondary antibody for 1 h in room temperature. The cells were washed with dPBS thrice and counterstain with DAPI (1 μM) for 10 min and imaged using confocal microscope.
M3 with in vitro antioxidant activity and in cellulo ROS quenching effect was expected to alleviate oxidative stress and modulate Nrf2 response. The effect of M3 on Nrf2 localisation in Aβ treated SH-SY5Y cells were assessed by indirect immunofluorescence staining study. […]

SH-SY5Y cells = assay: MTT cytotoxicity assay; format: cell-based; conditions: 24 h, up to 200 μM
Description: The SH-SY5Y cells were seeded onto 96 well plates at cell density of 25,000 cells per well and incubated. After 24 h cells were treated with different concentration of compounds (10, 20, 50, 100 and 200 μM) and incubated. After 24 h MTT (5 mg/mL) was added to the cells and incubated for 3 h, removed media and DMSO/Methanol (1:1) solution added to dissolve formazan crystals. The absorbance was recorded at 570 nm and the percentage cell viability was calculated with respect to control cells treated with vehicle (DMSO).
NMIs modulated metal-independent and dependent Aβ aggregation, reduced ROS in vitro and in cellulo, and rescue cells from oxidative stress. The biocompatibility, the cytotoxicity of compounds of the present disclosure to neuronal cells were evaluated by MTT assay. SH-SY5Y cells were treated with different concentrations of modulators (NMIs) for 24 h and performed MTT assay to determine the cell viability.

TNFα = assay: Western blot of TNFα in C6 microglia; format: cell-based; conditions: LPS 500 ng/mL, Aβ 5 μM, compound 10 μM; Aβ alone 2.35 fold
Description: (§1) Western blot analysis was performed to analyse the changes in the protein levels from cell lysates. SH-SY5Y and C6 cells were cultured to 80% confluence in T25 flask, trypsinised and seed into 12 well plate. The cells were cultured for 30 h and then treated with LPS (500 ng/mL) in low serum media for 6 h. Then the cells were treated with Aβ42 (5 μM) alone and with NMIs (M3) (10 μM) for 18 h. The cells were harvested by trypsinisation and the protein was extracted in RIPA lysis buffer with protease inhibitor cocktail (1×). Briefly cells were washed with dPBS and lysed in […] of RIPA lysis buffer with gentle shaking in 4° C. for 30 min. Then the cells were centrifuged at 16000 g for 20 min and the supernatant containing protein was collected and quantified by Bradford assay. The protein lysate was subjected to SDS-PAGE (12% resolving gel) and transferred to PVDF membrane. The blot paper was blocked with 5% skim milk powder for 1 h at room temperature and then washed thrice with TBST. The blots were incubated with primary antibodies for 20 h at 4° C. The blots were washed thrice with TBST for 5 min and then incubated with anti-rabbit HRP-conjugated secondary antibodies for 1 h at room temperature. […] All the western blots were quantified by using ImageJ, data was plotted and analysed by GraphPad prism5. […]

IL6 = assay: Western blot of IL6 in C6 microglia; format: cell-based; conditions: LPS 500 ng/mL, Aβ 5 μM, compound 10 μM; changes statistically insignificant
Description: as §1

T1 sequence (P05067 672-713 limits assumed): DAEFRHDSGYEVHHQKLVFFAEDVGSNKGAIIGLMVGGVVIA

In the case of O=C1c2cccc3c(N(Cc4ccccn4)Cc4ccccn4)ccc(c23)C(=O)N1CCc1ccc(O)c(O)c1 [M3, 6-(bis(pyridin-2-ylmethyl)amino)-2-(3,4-dihydroxyphenethyl)-1H-benzo[de]isoquinoline-1,3(2H)-dione], the “Zn-dependent Aβ aggregation” value [1] is reported as “reduce Zn-dependent Aβ aggregation”, the “translocation of Nrf2 to the nucleus” value (Nrf2) is reported as “reduced the translocation of Nrf2 to the nucleus” and the cytotoxicity (SH-SY5Y cells) is reported as “minimal toxicity”. The “TNFα level in comparison to control” value (TNFα) was 1.47 fold and the IL6 level (IL6) was “reduced”.
